Data on 23 compounds can be found in patent US20240109853A1 (Shanghai Yao Yuan Biotechnology Co., Ltd., priority 2020, published 2024).

Read-outs that look alike come from different tables or passages of the source.

For one test, the target named is ALPK1 (Homo sapiens (Human), UniProt Q96QP1). Nature of the test: ALPK1 in vitro kinase assay (HTRF of TIFA phosphorylation). The class given is biochemical.
Test [1] relates to ALPK1-dependent NFκB reporter gene activation in HEK293 cells stably expressing an NF-kB reporter (G9 cells). Nature of the test: NFκB gene reporter alkaline phosphatase assay. The conditions noted are these: read-out: NFkB assay IC50. The class given is cell-based. In outline: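 Compounds, serially diluted, were added to attached HEK293-derived G9 reporter cells for 30 min prior to stimulation with the fluoro-heptose ADP agonist. Secreted alkaline phosphatase was quantified colorimetrically using pNPP.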

In another test the target is hALPK1-V1092A (Homo sapiens (Human), UniProt Q96QP1, V1092A). Nature of the test: cell-based.
hALPK1-V1092A, sequence (Q96QP1 whole entry V1092A): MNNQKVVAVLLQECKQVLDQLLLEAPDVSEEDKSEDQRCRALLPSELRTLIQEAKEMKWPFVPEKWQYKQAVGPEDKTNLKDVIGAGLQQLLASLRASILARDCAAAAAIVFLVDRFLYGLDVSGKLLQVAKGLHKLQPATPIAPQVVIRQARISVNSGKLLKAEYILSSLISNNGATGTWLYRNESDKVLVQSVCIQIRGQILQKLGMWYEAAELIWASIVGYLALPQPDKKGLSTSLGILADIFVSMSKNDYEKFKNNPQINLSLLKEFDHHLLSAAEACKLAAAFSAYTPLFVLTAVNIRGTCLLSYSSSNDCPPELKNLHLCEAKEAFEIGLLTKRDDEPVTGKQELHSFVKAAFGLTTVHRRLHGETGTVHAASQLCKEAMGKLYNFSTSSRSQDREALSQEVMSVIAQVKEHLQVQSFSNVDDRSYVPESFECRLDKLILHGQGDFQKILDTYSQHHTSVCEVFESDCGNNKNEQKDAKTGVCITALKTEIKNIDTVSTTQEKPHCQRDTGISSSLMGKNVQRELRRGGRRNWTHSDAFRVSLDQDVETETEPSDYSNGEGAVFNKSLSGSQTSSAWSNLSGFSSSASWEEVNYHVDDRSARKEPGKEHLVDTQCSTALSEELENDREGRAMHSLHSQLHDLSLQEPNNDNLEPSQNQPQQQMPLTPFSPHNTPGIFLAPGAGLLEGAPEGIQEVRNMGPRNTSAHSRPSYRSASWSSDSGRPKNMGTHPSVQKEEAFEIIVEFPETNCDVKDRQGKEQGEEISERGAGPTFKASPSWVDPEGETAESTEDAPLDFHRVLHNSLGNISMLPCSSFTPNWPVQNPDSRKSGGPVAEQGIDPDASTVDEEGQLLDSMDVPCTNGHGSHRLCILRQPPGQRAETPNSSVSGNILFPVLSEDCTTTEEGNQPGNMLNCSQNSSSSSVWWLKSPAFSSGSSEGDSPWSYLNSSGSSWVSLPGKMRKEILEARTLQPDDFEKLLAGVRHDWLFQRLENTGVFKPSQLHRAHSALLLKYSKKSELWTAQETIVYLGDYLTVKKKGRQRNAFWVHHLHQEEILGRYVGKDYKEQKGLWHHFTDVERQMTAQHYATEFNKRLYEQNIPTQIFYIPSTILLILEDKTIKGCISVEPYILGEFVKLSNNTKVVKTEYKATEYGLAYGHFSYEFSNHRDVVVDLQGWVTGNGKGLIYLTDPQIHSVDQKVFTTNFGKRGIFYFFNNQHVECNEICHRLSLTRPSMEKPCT
Test [2] relates to polymicrobial sepsis induced by cecal ligation and puncture. Nature of the test: Sepsis induced acute kidney injury model (cecal ligation and puncture, CLP). The conditions noted are these: rat CLP, 20 mg/kg 2 hours prior to surgery.
Protocol: Survival was recorded over the following 24 hours.
24 hours post-surgery, the kidneys were collected for gene expression analysis by Q-PCR.
24 hours post-surgery, plasma MCP-1 concentration was measured by ELISA.
We used a rat CLP model to evaluate the effects of compounds described here on sepsis. Briefly, the rat cecum was ligated with sterile silk thread, and then cecum was punctured twice with a needle, gently squeezed to express a small amount of fecal material, then the abdominal incision was closed. […] In addition, at 24 hours post-surgery, the kidneys were collected for gene expression analysis by Q-PCR and plasma was collected for measurement of plasma MCP-1 concentrations by ELISA.
Where [3] appears, read: ALPK1 2 nM, TIFA substrate, ADP-Heptose activator, HTRF readout.

ALPK1, sequence (Q96QP1 whole entry): as the sequence (Q96QP1 whole entry V1092A) above, with A1092V counted along it
Protocol for hALPK1-V1092A: Accordingly, we used IL-8 secretion as an indicator of activated ALPK1 inhibition in cells expressing these mutations.
Transfection was performed according to manufacturer's protocols (Lipofectamine™ 3000, ThermoFisher). Transfected cells were selected, seeded onto 96-well plates and treated with serial dilutions of the test compounds for 6.5 hr. Following treatment, cell viability was determined using a luminescent cell viability assay (Cell Counting-Lite Assay or “CCL Assay” from Vazyme Biotech Co., Ltd.) and cell free supernatants were collected and analyzed for IL-8 protein by IL-8 ELISA as described above.
Fresh medium and compound were added at 18 hours. Cell viability and IL-8 secretion were determined 6 hours after the second addition of compound, using the CCL assay and IL-8 ELISA as described above.

Turning to `C#C[C@@](C)(c1ccc(Cl)cc1)c1csc(NC(=O)N2CC(CN3CCNCC3)C2)n1` (stereo in doubt) [Example A292, N-(4-(2-(4-chlorophenyl)but-3-yn-2-yl)thiazol-2-yl)-3-(piperazin-1-ylmethyl)azetidine-1-carboxamide], the IC50 against ALPK1 was 43 nM; in test [1] (Homo sapiens, HEK293) it was 650 nM; at hALPK1-V1092A, 547 nM.

Consider `C#C[C@](C)(c1ccc(Cl)cc1)c1csc(NC(=O)NC(C)CO)n1` (stereo in doubt) [Example A314, 1-(4-(2-(4-chlorophenyl)but-3-yn-2-yl)thiazol-2-yl)-3-(1-hydroxypropan-2-yl)urea], for which the IC50 is 800 nM in test [1] (Homo sapiens, HEK293) and 4000 nM against hALPK1-V1092A.

Regarding `C#CC(C)(c1ccc(Cl)cc1)c1csc(NC(=O)NCC(O)CO)n1` (stereo not shown) [Example A244, 1-(4-(2-(4-chlorophenyl)but-3-yn-2-yl)thiazol-2-yl)-3-(2,3-dihydroxypropyl)urea], the IC50 at ALPK1 turned out to be 72 nM; in test [1] (Homo sapiens, HEK293) it was 1030 nM; against hALPK1-V1092A, 4790 nM.

Take `C#C[C@@](C)(c1ccc(Cl)cc1)c1csc(NC(=O)NCCC(C)(C)O)n1` [Example A249, (S)-1-(4-(2-(4-chlorophenyl)but-3-yn-2-yl)thiazol-2-yl)-3-(3-hydroxy-3-methylbutyl)urea]: the IC50 turned out to be 128 nM on ALPK1; 670 nM in test [1] (Homo sapiens, HEK293); 11700 nM at hALPK1-V1092A.

Regarding `C#C[C@@](C)(c1ccc(Cl)cc1)c1csc(NC(=O)c2c(F)cc(N3CCNCC3)cc2F)n1` [Example C008, (S)-N-(4-(2-(4-chlorophenyl)but-3-yn-2-yl)thiazol-2-yl)-2,6-difluoro-4-(piperazin-1-yl)benzamide], in test [2] (kidneys 24 hours post-surgery, Q-PCR), the “kidney proinflammatory gene expression (IL6, TNFa, IL-1b, CCl2, KC)” value is “decreased expression of kidney proinflammatory genes”. Moreover, the survival result in test [2] (survival over 24 hours) is recorded as “improved the animals' survival rate”.

As for `C#C[C@@](C)(c1ccc(OC)cc1)c1csc(NC(=O)NCCS(N)(=O)=O)n1` [Example A311, 2-(3-(4-(2-(4-methoxyphenyl)but-3-yn-2-yl)thiazol-2-yl)ureido)ethanesulfona-mide], the IC50 was determined as 95 nM at ALPK1; 660 nM in test [1] (Homo sapiens, HEK293); 1160 nM on hALPK1-V1092A.

For the compound `C#C[C@](C)(c1ccc(OC)cc1)c1csc(NC(=O)NCCS(N)(=O)=O)n1` [Example A310, 2-(3-(4-(2-(4-methoxyphenyl)but-3-yn-2-yl)thiazol-2-yl)ureido)ethanesulfona-mide], the IC50 against ALPK1 amounted to 223 nM; in test [1] (Homo sapiens, HEK293), 980 nM; at hALPK1-V1092A, 1910 nM.

On to `C#C[C@@](C)(c1ccc(Cl)cc1)c1csc(NC(=O)N2CC(c3ccc(N4CCNCC4)c(F)c3)C2)n1` [Example A245], for which the IC50 at ALPK1 came out at 16 nM; in test [1] (Homo sapiens, HEK293), 680 nM; against hALPK1-V1092A it was 304 nM.

As for `C#C[C@](C)(c1ccc(Cl)cc1)c1csc(NC(=O)NCC(C)O)n1` (stereo in doubt) [Example A316, 1-(4-(2-(4-chlorophenyl)but-3-yn-2-yl)thiazol-2-yl)-3-(2-hydroxypropyl)urea], the IC50 in test [1] (Homo sapiens, HEK293) came to 1810 nM; on hALPK1-V1092A, 16400 nM.

For the compound `C#C[C@@](C)(c1ccc(Cl)cc1)c1csc(NC(=O)NCC(C)O)n1` (stereo in doubt) [Example A319, 1-(4-(2-(4-chlorophenyl)but-3-yn-2-yl)thiazol-2-yl)-3-(2-hydroxypropyl)urea], the figures for the half-inhibitory concentration (IC50) (in test [1]; on hALPK1-V1092A) were 670 nM and 7860 nM, respectively.

With `C#C[C@@](C)(c1ccc(Cl)cc1)c1csc(NC(=O)NCC(C)O)n1` (stereo in doubt) [Example A317, 1-(4-(2-(4-chlorophenyl)but-3-yn-2-yl)thiazol-2-yl)-3-(2-hydroxypropyl)urea], the IC50 in test [1] (Homo sapiens, HEK293) worked out at 970 nM; against hALPK1-V1092A it was 1930 nM.

Take `C#CC(C)(c1ccc(Cl)cc1)c1csc(NC(=O)N2CC(N3CCNCC3)C2)n1` (stereo not shown) [Example A261, N-(4-(2-(4-chlorophenyl)but-3-yn-2-yl)thiazol-2-yl)-3-(piperazin-1-yl)azetidine-1-carboxamide]: the IC50 is 83 nM on ALPK1; 510 nM in test [1] (Homo sapiens, HEK293); 573 nM against hALPK1-V1092A.

Turning to `C#C[C@@](C)(c1ccc(Cl)cc1)c1csc(NC(=O)NCCS(N)(=O)=O)n1` [Example A289, 2-(3-(4-(2-(4-chlorophenyl)but-3-yn-2-yl)thiazol-2-yl)ureido)ethanesulfona-mide], the 50% inhibitory concentration (IC50) on ALPK1 was 54 nM; in test [1] (Homo sapiens, HEK293) it was 470 nM; against hALPK1-V1092A, 439 nM.

For `C#C[C@](C)(c1ccc(Cl)cc1)c1csc(NC(=O)NC(C)CO)n1` (stereo in doubt) [Example A315, 1-(4-(2-(4-chlorophenyl)but-3-yn-2-yl)thiazol-2-yl)-3-(1-hydroxypropan-2-yl)urea], the IC50 stood at 650 nM in test [1] and 2770 nM against hALPK1-V1092A.

As for `C#C[C@@](C)(c1ccc(Cl)cc1)c1csc(NC(N)=O)n1` [Example A252, (S)-1-(4-(2-(4-chlorophenyl)but-3-yn-2-yl)thiazol-2-yl)urea], the concentration for half-maximal inhibition (IC50) against ALPK1 was found to be 30 nM; in test [1] (Homo sapiens, HEK293), 530 nM; against hALPK1-V1092A, 723 nM.

Consider `C#C[C@@](C)(c1ccc(Cl)cc1)c1csc(NC(=O)NCCO)n1` [Example A176, (S)-1-(4-(2-(4-chlorophenyl)but-3-yn-2-yl)thiazol-2-yl)-3-(2-hydroxyethyl)urea], for which the IC50 against ALPK1 stood at 5.4 nM; in test [1] (Homo sapiens, HEK293), 280 nM; on hALPK1-V1092A, 1550 nM.

Turning to `C#C[C@](C)(c1ccc(Cl)cc1)c1csc(NC(N)=O)n1` [Example A251, (R)-1-(4-(2-(4-chlorophenyl)but-3-yn-2-yl)thiazol-2-yl)urea], the half-inhibitory concentration (IC50) on ALPK1 was determined as 81 nM; in test [1] (Homo sapiens, HEK293), 1670 nM; at hALPK1-V1092A, 892 nM.

For `C#C[C@@](C)(c1ccc(Cl)cc1)c1csc(NC(=O)NC(C)CO)n1` (stereo in doubt) [Example A312, 1-(4-(2-(4-chlorophenyl)but-3-yn-2-yl)thiazol-2-yl)-3-(1-hydroxypropan-2-yl)urea], the IC50 in test [1] (Homo sapiens, HEK293) was determined as 2120 nM; against hALPK1-V1092A, 16000 nM.

Regarding `C#C[C@](C)(c1ccc(Cl)cc1)c1csc(NC(=O)NCCO)n1` [Example A175, (R)-1-(4-(2-(4-chlorophenyl)but-3-yn-2-yl)thiazol-2-yl)-3-(2-hydroxyethyl)urea], the concentration for half-maximal inhibition (IC50) turned out to be 32 nM against ALPK1; 1310 nM in test [1] (Homo sapiens, HEK293); 4030 nM against hALPK1-V1092A.

As for `C#C[C@@](C)(c1ccc(Cl)cc1)c1csc(NC(=O)NC(C)CO)n1` (stereo in doubt) [Example A313, 1-(4-(2-(4-chlorophenyl)but-3-yn-2-yl)thiazol-2-yl)-3-(1-hydroxypropan-2-yl)urea], the half-inhibitory concentration (IC50) in test [1] came to 2820 nM; at hALPK1-V1092A, 10200 nM.

Regarding `COCC(C)(c1ccc(Cl)cc1)c1csc(NC(=O)c2c(F)cc(N3CCNCC3)cc2F)n1` (stereo not shown) [Example C016, N-(4-(2-(4-chlorophenyl)-1-methoxypropan-2-yl)thiazol-2-yl)-2,6-difluoro-4-(piperazin-1-yl)benzamide], the IC50 at ALPK1 (setting [3]) is 16 nM; on hALPK1-V1092A, 1590 nM.

With `C#C[C@](C)(c1ccc(Cl)c(F)c1)c1csc(NC(=O)c2c(F)cc(N3CCNCC3)cc2F)n1` (stereo in doubt) [Example C037, N-(4-(2-(4-chloro-3-fluorophenyl)but-3-yn-2-yl)thiazol-2-yl)-2,6-difluoro-4-(piperazin-1-yl)benzamide], the IC50 against ALPK1 (setting [3]) was determined as 151 nM; against hALPK1-V1092A it was 8300 nM.

As to `C#Cc1ccc(C(C)(C#C)c2csc(NC(=O)c3c(F)cc(N4CCNCC4)cc3F)n2)cc1` (stereo not shown) [Example C042, N-[4-[1-(4-ethynylphenyl)-1-methyl-prop-2-ynyl]thiazol-2-yl]-2,6-difluoro-4-piperazin-1-yl-benzamide], the IC50 against ALPK1 (setting [3]) worked out at 101 nM; against hALPK1-V1092A it was 225 nM.
